According to patent US20240342137A1 (priority 2023, published 2024):
pIC50, pKi: −log10 of the molar value. Converted amounts (≈) assume the structure as drawn. Like-named read-outs stand apart in the source and are kept apart here.

Columns and labels:
[1] = test system: xylazine sedative effects; conditions: in vivo; cited from earlier work
[2] = test system: other adrenergic, opioid or GABA (Gamma-AminoButyric Acid class) sedative and analgesic agents; conditions: cited from earlier work
alpha-1 adrenoceptors = conditions: cited from earlier work
[3] = assay type: physicochemical; conditions: pH 6
[4] = human, in vivo; cited from earlier work
[5] = test system: other neurotransmitter receptors including I2 and 5-HT; conditions: cited from earlier work
physchem = conditions: water
[6] = human, in vivo, cited from earlier work
alpha-2 adrenoceptors = biological target: T1, alpha-2 adrenoceptors; conditions: cited from earlier work; for pIC50: read-out: half-maximal inhibitory concentration
T1 construct: rows headed: Alpha-2 Ki; other: [3H]clonidine displacement, brain membrane; other: alpha-2; lower sensitivity compared to atipamezole; other: alpha-2, vs atipamezole

[7] = human, in vivo, 20 mg, cited from earlier work

CCC1(c2cnc[nH]2)Cc2ccccc2C1 [Atipamezole, 4-(2-ethyl-2,3-dihydro-1H-inden-2-yl)-1H-imidazole]
breathing rate reversal of xylazine sedative effects [1]: Rapid breathing rate reversal of xylazine sedative effects within a few
concentrations of atipamezole for restoring breathing rate [1]: 10 to 20 ng/mL
effect on other adrenergic, opioid or GABA sedative and analgesic agents [2]: No effect on other adrenergic, opioid or GABA (Gamma-AminoButyric
pKi (alpha-1 adrenoceptors): 4.88
final atipamezole concentration when fully dissolved [3]: 375.8 mM
increase in heart rate and blood pressure [4]: 14-17 mmHg (which may benefit those who are under deep respiratory
safety in humans by dose [4]: safe up to 100 mg dose
untoward or Severe Adverse Event (SAE) [4]: At 30-100 mg/dose in human with no major untoward or Severe Adverse
effect on other neurotransmitter receptors including I2 and 5-HT [5]: Negligible or no effect on other neurotransmitter receptors including I2
solubility (physchem): ~70 µg/mL (≈ 330 µM)
T1/2 ([6]; iv, 15 ug/kg): 2.04 h
Tmax ([6]; iv, 15 ug/kg): 0.25 h
T1/2 ([6]; iv, 50 ug/kg): 1.92 h
T1/2 ([6]; iv, 150 ug/kg): 1.83 h
elimination half-life ([6]; iv): approximately 2 hour
elimination half-life [6]: Short elimination half-life (~2 h in humans) improving safety
pKi (alpha-2 adrenoceptors): 8.80
pIC50 (alpha-2 adrenoceptors): 8.80
AUC [7]: 85 ng·h/mL
Cmax [7]: 23 ng/mL
T1/2 [7]: 2.0 h
Tmax [7]: 0.76 h
AUC ([7]; iv): 231 ng·h/mL
Cmax ([7]; iv): 145 ng/mL
T1/2 ([7]; iv): 1.8 h
AUC ([7]; po): 4.2 ng·h/mL
Cmax ([7]; po): 1.2 ng/mL
T1/2 ([7]; po): 2.0 h
Tmax ([7]; po): 0.82 h

c1ccc2c(c1)OCC(C1=NCCN1)O2 (stereo not drawn) [Idazoxan]
pKi (alpha-1 adrenoceptors): 5.40
pKi (alpha-2 adrenoceptors): 6.83
pIC50 (alpha-2 adrenoceptors): 6.83

COC(=O)[C@@H]1[C@H]2C[C@H]3c4[nH]c5ccccc5c4CCN3C[C@@H]2CC[C@@H]1O [Yohimbine]
pKi (alpha-1 adrenoceptors): 5.29
